Test results taken from patent US12399167B2 (priority 2019, dated 2025).
Converted amounts (≈) assume the structure as drawn. “And” between values parts separate entries of the source, which are not always exact repeats. Equal entries are not always repeated. Where two headings read alike, the source gives them in different places.

Tests used:
[1] = system: zebrafish embryos and larvae (AB strain); settings: for NH: Number of health fish: of 60 embryos
Procedure: Toxicant exposure of the embryos: transferring healthy zebrafish embryos laid within 4 hours with droppers into 24 well plates which serve as embryo incubation containers, adding one embryo and 2 mL of the test drug liquid into each well, setting four replicates at a time for each concentration, using a total of 4×15 embryos per concentration; then, placing the 24 well plates into an incubator at a temperature of 26±1° C., allowing incubation under a condition of 14 h light: 10 h dark, recording the death number and the incubation time of the embryos every day, and replacing the test drug liquids once every two days during this test stage. Each concentration consumes a total of 60 embryos, and thus multiple 24 well plates are used during the test.
Selection of a test organism: zebrafish is selected as the test organism, the zebrafish is AB strain and embryos used in the test are propagated and obtained by the following methods: before the test, zebrafish broodstock is reared in water at a temperature of 26±1° C., the ratio of light time to dark time is 14 h:10 h, and when it is lighted, it should be naturally illuminated in a 4.8 m×3.0 m room, plus four 40 W fluorescent lamps, and the feeding lasts at least 2 weeks in an environment which is oxygenated by aeration, the zebrafish broodstock is fed once a day during pre-cultivation, and feces and food residues are removed in time. The zebrafish is purchased from the Institute of Hydrobiology of Chinese Academy of Science. The zebrafish has the advantages of short growth cycle, strong reproductive ability, transparent fertilized eggs, and easy observation of embryonic development, making it an important model organism in aquatic ecological toxicology research.
Toxicant exposure of larvae: recording the number of the larvae at the end of the embryo hatching, transferring the larvae into glass beakers containing 200 mL of the test drug liquid with the corresponding test concentration, replacing the test drug liquids once every two days during this test stage that lasts 30 days after hatching, and feeding the zebrafish larvae with yolk in the first three days and then with fairy shrimp twice a day, wherein the larvae are firstly fed on the fourth or fifth day after spawning. The feed amount is adjusted according to the actual situation so as to be able to freely ingest and avoid excess.
During the test, if relevant test data are found to be not in the preceding scopes, then the current test is invalid, and a new test is required to be carried out again.
Observation in the test: observing the hatching rate and survival rate and recording the quantity of the larvae once a day; checking the larvae's malformation, the number of malformed larvae and abnormal behaviors once a week; removing impurities and dead larvae in beakers in a timely manner; all live larvae of the control groups and the concentration test groups are anesthetized with MS-222 for measurement of the body lengths and wet weights one by one at the end of the test, wherein the body length of each adolescent fish is measured with a vernier caliper, and the wet weight of each adolescent fish is weighed with an electronic balance. The reciprocal sensibility of the electronic balance is 0.00001 g, and the moisture on the body surface of each fish needs to be removed when the wet weight is weighed.
DPS statistical analysis software is the existing software and therefore is not described in detail here. Any other software that can implement the statistical analysis function is also available.

[2] = 20° C.; cited from earlier work

CN/C(=N/CC1CCOC1)N[N+](=O)[O-] (centres unmarked) [dinotefuran]
weights of the larvae versus control groups ([1]; 9.375 mg a.i./L): obviously different | AL: Average length of live fish ([1]; 9.375 mg a.i./L, end of test): 15.86 ± 0.95 a mm | AM: Accumulative mortality ([1]; 9.375 mg a.i./L, end of test): 26.67 a % | NH: Number of health fish ([1]; 9.375 mg a.i./L, end of test): 44 Piece | Average weight of Live fish ([1]; 9.375 mg/L, end of test): 16.53 ± 2.18 b mg | weights of the larvae versus control groups ([1]; 18.75 mg a.i./L): obviously different | AL: Average length of live fish ([1]; 18.75 mg a.i./L, end of test): 15.83 ± 0.88 a mm | AM: Accumulative mortality (death rate of the larvae) ([1]; 18.75 mg a.i./L, end of test): 41.67% and 41.67 b % | NH: Number of health fish ([1]; 18.75 mg a.i./L, end of test): 35 Piece | Average weight of Live fish ([1]; 18.75 mg/L, end of test): 14.21 ± 1.68 c mg | body lengths of the larvae versus control groups ([1]; 37.5 mg a.i./L): obviously different | weights of the larvae versus control groups ([1]; 37.5 mg a.i./L): obviously different | AL: Average length of live fish ([1]; 37.5 mg a.i./L, end of test): 13.52 ± 1.61 b mm | AM: Accumulative mortality (death rate of the larvae) ([1]; 37.5 mg a.i./L, end of test): 46.67% and 46.67 b % | NH: Number of health fish ([1]; 37.5 mg a.i./L, end of test): 32 Piece | Average weight of Live fish ([1]; 37.5 mg/L, end of test): 13.89 ± 1.96 c mg | body lengths of the larvae versus control groups ([1]; 75.0 mg a.i./L): obviously different | weights of the larvae versus control groups ([1]; 75.0 mg a.i./L): obviously different | AL: Average length of live fish ([1]; 75.0 mg a.i./L, end of test): 12.83 ± 1.53 b mm | AM: Accumulative mortality (death rate of the larvae) ([1]; 75.0 mg a.i./L, end of test): 55.0% and 55.0 b % | NH: Number of health fish ([1]; 75.0 mg a.i./L, end of test): 27 Piece | Average weight of Live fish ([1]; 75.0 mg/L, end of test): 13.29 ± 2.96 c mg | fate of all larvae at the end of the test ([1]; 150 mg a.i./L): died | fate of all larvae at the end of the test ([1]; 300 mg a.i./L): died | minimum observable effect concentration on the body lengths of the larvae ([1]; end of test): 37.5 mg a.i./L | minimum observable effect concentration on the weights of the larvae ([1]; end of test): 9.375 mg a.i./L | unobservable effect concentration on the body lengths of the larvae ([1]; end of test): 18.75 mg a.i./L | toxic symptoms during the exposure stage ([1]; test groups): no obvious toxic symptoms were observed except malformation of several fishes before death | solubility in methanol [2]: 57 mg/mL (≈ 282 mM)
